The values that follow come from PMC4171606, “A novel copper(I) complex induces ER-stress-mediated apoptosis and sensitizes B-acute lymphoblastic leukemia cells to chemotherapeutic agents” (Oncotarget, 2014).

Structures are written as SMILES.

Test [1] relates to PHA stimulated healthy PBMC. The test can be described thus: MTT growth inhibition, 72 h. The class given is cell-based, human. To be noted: mean ± SE.
Test [2] relates to CD19+ cells from peripheral blood of healthy donors. Put plainly: MTT viability of healthy cells, 24 h. It counts as cell-based, human. The protocol: (§1) CP growth inhibitory activity was measured on primary cultures derived from pediatric patients affected by B-acute lymphoblastic leukemia. […] In particular, in resting and in PHA-stimulated PBMC, and in CD19^+ cells GI50 was higher than 10 μM confirming that CP preferentially affects leukemia cells.
(§2) FIGURE 6 CP effects on B-ALL primary cultures (A) Blast cells from six B-ALL patients were incubated for 24 h with different concentrations of CP. For the sake of comparison CD19^+ cells from peripheral blood of healthy donors, and PBMC were also incubated with CP in the presence or absence of PHA. Cell viability were assayed by MTT analysis. Data are represented as mean ± S.E.M of four independent experiments. (B) Bone marrow cells from healthy donors were treated for 24 h with CP (2.5 μM and 5 μM). Cell viability was evaluated on the whole population by flow cytometry after staining the cells with Annexin-V-FITC and PI. are represented as mean ± S.E.M of 3 independent experiments. (C) Western Blot analysis of GRP78 and CHOP expression, PARP cleavage and caspase-3 activation, on protein extracts of blast cells from B-ALL patients treated with CP (2.5 μM) for 12 h.
(§3) Peripheral blood mononuclear cells (PBMC) and bone marrow cells from healthy donors were obtained by separation on Lymphoprep (Fresenius KABI, Norge AS) gradient. After extensive washing, cells were resuspended (1.0 × 10^6 cells/ml) in RPMI1640 with 10% fetal bovine serum and incubated overnight in 96-well tissue culture microtiter plate. For cytotoxicity evaluations in proliferating PBMC cultures, non-adherent cells were resuspended in growth medium, containing 2.5 μg/ml phytohematoglutinin (PHA) (Irvine Scientific). To isolate B-lymphocyte, PBMC obtained by Lymphoprep (Fresenius KABI, Norge AS) separation were labeled with anti-CD19-APC (BD Biosciences, Italy) and collected by cell sorting.

Another test concerns PHA-stimulated PBMC. The test can be described thus: MTT viability of healthy cells, 24 h. The class given is cell-based, human. The protocol: as §1, §2, §3
The next test relates to resting PBMC. The test can be described thus: MTT viability of healthy cells, 24 h. The class given is cell-based, human. The protocol:
as §1, §2, §3

Test [3] concerns 26S proteasome semipurified from RS4;11 cells, Trypsin-like (T) activity. Put plainly: Proteasome activity on semipurified cell extract (fluorogenic substrate). To be noted: RS4;11 extract, 60 min at 37 °C, cell-free. It counts as biochemical, human. An excerpt:
(§4) The 26S proteasome is a multicatalytic protease responsible for the regulated intracellular protein degradation. Its function is mediated by three main catalytic activities i) chymotrypsin like (CT) ii) Trypsin-like (T) and iii) peptidyl glutamyl peptide hydrolyzing (PGPH). To evaluate the effect of CP on the proteasome activity in leukemia cells, we tested increasing concentrations of the compound on semipurified 26S proteasome extract from RS4;11 and SEM cells, and measured the functioning of each individual proteolytic activity under cell-free condition.
(§5) FIGURE 3 CP treatment affects Ubiquitin Proteasome System (UPS) 26S proteasome (100 μg) semipurified from (A) SEM and (B) RS4;11 cells was incubated for 60 min at 37 °C with CP at different concentrations. Chymotrypsin (CT), trypsin (T) and peptidyl glutamyl peptide hydrolyzing (PGPH) catalytic activity were measured fluorimetrically (excitation 370, nm emission 460) by following the release of free AMC from synthetic substrates N-Suc-Leu-Leu-Val-Tyr-AMC, Boc-Gln-Ala-Arg-AMC and Z-Leu-Leu-Glu-AMC, specific for CT, T and PGPH activity, respectively. (C) Cells were incubated with CP 2.5 μM for the indicated times and then western blot analyses were performed to evaluate Ubiquitin accumulation.
(§6) RS4;11 and SEM cells were homogenized in a lysis buffer (50 mM Tris-HCl, pH 7.5, 250 mM sucrose, 5 mM MgCl2, 1 mM DTT, 0.5 mM EDTA) and ultracentrifuged for 2 h at 300,000 g. Total protein content was estimated with BioRad protein assay (BioRad) and 100 μg of protein aliquots were incubated for 60 min at 37°C with CP at different concentrations. Afterwards, fluorogenic proteasome substrates (N-Suc-Leu-Leu-Val-Tyr-7-amido-4-methylcoumarin (AMC) for chymotripsin (CT), Boc-Gln-Ala-Arg-AMC for tripsin (T) and Z-Leu-Leu-Glu-AMC for peptidyl glutamyl peptide hydrolyzing (PGPH) were added and the substrate hydrolysis was measured after 30 min by monitoring the release of Tyr-7-amido-4-methylcoumarin (AMC) using a Varian Cary Eclipse (Varian) spectrofluorometer (excitation at 370 nm, emission at 460 nm).

In test [4] the test system is 26S proteasome semipurified from RS4;11 cells, chymotrypsin like (CT) activity. Described as above. The class given is biochemical, human. To be noted: RS4;11 extract, 60 min at 37 °C, cell-free.
Source text: as §4, §5, §6

In test [5] the test system is 26S proteasome semipurified from RS4;11 cells, peptidyl glutamyl peptide hydrolyzing (PGPH) activity. The description is as above. The class given is biochemical, human. To be noted: RS4;11 extract, 60 min at 37 °C, cell-free.
Source text: as §4, §5, §6

Test [6] concerns 26S proteasome semipurified from SEM cells, Trypsin-like (T) activity. Described as above. It counts as biochemical, human. To be noted: 60 min at 37 °C, cell-free.
Source text: as §4, §5, §6

Test [7] deals with 26S proteasome semipurified from SEM cells, chymotrypsin like (CT) activity. The test is described as above. It counts as biochemical, human. To be noted: 60 min at 37 °C, cell-free.
Source text: as §4, §5, §6

The subject of test [8] is 26S proteasome semipurified from SEM cells, peptidyl glutamyl peptide hydrolyzing (PGPH) activity. Described as above. It counts as biochemical, human. To be noted: 60 min at 37 °C, cell-free.
Source text: as §4, §5, §6

Test [9] concerns GRP78, CHOP, PARP, caspase-3. Put plainly: Western blot on blast cells from B-ALL patients. It counts as cell-based, human. To be noted: CP 2.5 μM, 12 h. The protocol: as §2
Cells were treated with CP and, after different times, were collected, centrifuged and washed with ice cold phosphate-buffered saline (PBS). The pellet was then resuspended in lysis buffer as described. The protein concentration in the supernatant was determined using the BCA protein assay (Pierce, Italy). Equal amounts of protein (10 μg) were resolved using SDS-PAGE gel electrophoresis (Criterion precast Tris-HCl gel, BioRad, Italy) and transferred to PVDF Hybond-p membranes (GE Healthcare, Italy). […]

The GI50 is the concentration that inhibits growth by half. A low value points to more potent growth inhibition. The term IC50 denotes the concentration that gives 50% inhibition. Read a low IC50 as greater potency. Take `F[P-](F)(F)(F)(F)F.OCP(CO)CO.OCP(CO)CO.OCP(CO)CO.OCP(CO)CO.[Cu+]` [CP, [Cu(thp)4][PF6]]: the concentration for 50% growth inhibition (GI50) in test [1] is 16.9 ± 1.6 µM; in test [2], above 10 µM; in the test with PHA-stimulated PBMC, above 10 µM; in the test with resting PBMC, above 10 µM. Also, the IC50 was around 11 µM in test [3]; around 18 µM in test [4]; around 10 µM in test [5]; around 12 µM in test [6]; around 15 µM in [7]; around 16 µM in [8]. For the same compound, the “caspase-3 activation and PARP cleavage” value in test [9] (patient cells) is “induced caspase-3 activation and PARP cleavage”. For the same compound, the “GRP-78 and CHOP expression” value in test [9] (primary cultures) is “significant increase in the expression of both these markers”.
